Measurements from patent publication US7494984B2, “Substituted imidazo[1,2-a]pyrimidines as HIV viral DNA integrase inhibitors” (priority 2005, dated 2009).

What was measured:
HIV-integrase = molecular target: T1, HIV-integrase (Human immunodeficiency virus type 1 group M subtype B, UniProt P12497); experiment: HIV-Integrase Inhibition Activity (SPA strand transfer assay); format: biochemical; details: recombinant integrase, biotin labeled substrate DNA on SPA beads, P33 labeled target DNA; read-out: Activity (IC50 class, HIV-integrase inhibition)
T1 construct: Recombinant integrase (0.26 ng) was incubated with the beads
Description: HIV-Integrase Inhibition Activity. To evaluate in-vitro activity against HIV-integrase, 5 pmole of biotin labeled substrate DNA was bound to 100 μg of Streptavidin coated PVT SPA beads (Amersham Pharmacia Biotech). Recombinant integrase (0.26 ng) was incubated with the beads for 90 min at 37° C. Unbound enzyme was removed by washing the complex followed by addition of inhibitors and 0.1 fmol of P33 labeled target DNA. The reaction was stopped by adding EDTA to a final concentration of 10 mM. Samples were counted in TopCountNXT (Packard) and the CPM was used as a measure of integration. The reaction condition was as described in A. Engelman and R. Craigie, J. Virol. 69, 5908-5911 (1995). The sequences of substrate and target DNA were described in Nucleic Acid Research 22,1121-1122 (1994). Activity equal to A refers to a compound having IC50=0.005 to 0.010 μM while B and C denote compounds having IC50=0.010 to 0.030 μM and IC50>0.030 μM respectively.

| Compound | IC50 (HIV-integrase) [nM] | melting point |
| --- | --- | --- |
| CNC(=O)c1cc(F)ccc1CNC(=O)c1nc2n(c(=O)c1O)CCN2Cc1ccccc1 [Example 18, N-(4-Fluoro-2-(methylcarbamoyl)benzyl)-1-benzyl-6-hydroxy-5-oxo-1,2,3,5-tetrahydroimidazo[1,2-a]pyrimidine-7-carboxamide] | 10 to 30 | 206 °C (dec.) |
| O=C(NCc1ccc(F)cc1-n1cncn1)c1nc2n(c(=O)c1O)CCN2Cc1ccccc1 [Example 19, N-(4-Fluoro-2-(1H-1,2,4-triazol-1-yl)benzyl)-1-benzyl-6-hydroxy-5-oxo-1,2,3,5-tetrahydroimidazo[1,2-a]pyrimidine-7-carboxamide] | 10 to 30 | 242 °C (dec.) |
| O=C(NCc1ccc(F)cc1)c1nc2n(c(=O)c1O)CCN2Cc1ccccc1 [Example 16, N-(4-Fluorobenzyl)-1-benzyl-6-hydroxy-5-oxo-1,2,3,5-tetrahydroimidazo[1,2-a]pyrimidine-7-carboxamide] | > 30 | 225 °C |
| COCCN1CCn2c1nc(C(=O)NCc1ccc(F)cc1)c(O)c2=O [Example 29, N-(4-Fluorobenzyl)-6-hydroxy-1-(2-methoxyethyl)-5-oxo-1,2,3,5-tetrahydroimidazo[1,2-a]pyrimidine-7-carboxamide] | 10 to 30 | 166 °C |
| Cc1cc(CNC(=O)c2nc3n(c(=O)c2O)CCN3C)ccc1F [Example 2, N-(4-Fluoro-3-methylbenzyl)-6-hydroxy-1-methyl-5-oxo-1,2,3,5-tetrahydroimidazo[1,2-a]pyrimidine-7-carboxamide] | 10 to 30 | 187 to 189 °C |
